This is an account of results in US9199965B2, “Benzoimidazole derivatives and pharmaceutical composition comprising the same” (Daewoong Co., Ltd., priority 2005, dated 2015).

Each structure is given as a SMILES string.

The test system of experiment [1] is ICR male mice (PBQ-induced writhing). As to the kind of experiment: PBQ-induced writhing test for analgesic effect. The settings on record: Mus musculus, 1 h, 20 mg/kg oral, one hour before intraabdominal PBQ (0.02%), read-out: % Inhibition (decrease in number of writhes compared to control). It counts as in vivo. On the procedure: A PBQ-induced writhing test was conducted in mice to assay for the analgesic effect of the novel compounds. Five-week-old ICR male mice were treated with PBQ (phenyl-p-quinone, 0.02%). A suspension of 20 mg of test material in 10 mL of physiological saline was used per kg of weight of mice. Test materials in combination with a carrier were orally administered one hour before the intraabdominal injection of PBQ in a dose of 10 mL per kg weight. From 5 min after the injection, individual mice in each test group were measured for numbers of writhes at regular intervals of 10 min. Analgesic effects of test compounds were expressed as percentages of the decrease in number of writhes compared to a control. [% Inhibition=(Control administered with carrier alone−Group administered with test material)/control administered with carrier alone×100]
For orientation: Writhing tests count abdominal constrictions after an irritant is injected.

The target in another experiment is T1, human vanilloid-1 (hVR1) (Homo sapiens, UniProt Q8NER1).
T1 construct: expressed in transfected cells; host or cells: HEK293 Tet-on (hVR1-HEK293), doxycycline-induced
Briefly: Calcium influx of vanilloid receptor in hVR1-HEK293 cells (capsaicin-induced, Fluo-3/AM). It counts as cell-based. Particulars: 1 μM capsaicin-induced intracellular calcium influx, read-out: Inhibitory Activity IC50. The essentials: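 HEK293 Tet-on cells expressing human VR1 were induced with deoxycycline and loaded with Fluo-3/AM for 90 min at 37 °C. Cells were given test compound at several concentrations, then stimulated with 1 μM capsaicin. Inhibition of the calcium fluorescence signal was fitted with the Hill equation.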
For orientation: Calcium assays in cells follow changes in intracellular calcium, usually with a dye or a luminescent sensor.

T1 sequence (Q8NER1 whole entry): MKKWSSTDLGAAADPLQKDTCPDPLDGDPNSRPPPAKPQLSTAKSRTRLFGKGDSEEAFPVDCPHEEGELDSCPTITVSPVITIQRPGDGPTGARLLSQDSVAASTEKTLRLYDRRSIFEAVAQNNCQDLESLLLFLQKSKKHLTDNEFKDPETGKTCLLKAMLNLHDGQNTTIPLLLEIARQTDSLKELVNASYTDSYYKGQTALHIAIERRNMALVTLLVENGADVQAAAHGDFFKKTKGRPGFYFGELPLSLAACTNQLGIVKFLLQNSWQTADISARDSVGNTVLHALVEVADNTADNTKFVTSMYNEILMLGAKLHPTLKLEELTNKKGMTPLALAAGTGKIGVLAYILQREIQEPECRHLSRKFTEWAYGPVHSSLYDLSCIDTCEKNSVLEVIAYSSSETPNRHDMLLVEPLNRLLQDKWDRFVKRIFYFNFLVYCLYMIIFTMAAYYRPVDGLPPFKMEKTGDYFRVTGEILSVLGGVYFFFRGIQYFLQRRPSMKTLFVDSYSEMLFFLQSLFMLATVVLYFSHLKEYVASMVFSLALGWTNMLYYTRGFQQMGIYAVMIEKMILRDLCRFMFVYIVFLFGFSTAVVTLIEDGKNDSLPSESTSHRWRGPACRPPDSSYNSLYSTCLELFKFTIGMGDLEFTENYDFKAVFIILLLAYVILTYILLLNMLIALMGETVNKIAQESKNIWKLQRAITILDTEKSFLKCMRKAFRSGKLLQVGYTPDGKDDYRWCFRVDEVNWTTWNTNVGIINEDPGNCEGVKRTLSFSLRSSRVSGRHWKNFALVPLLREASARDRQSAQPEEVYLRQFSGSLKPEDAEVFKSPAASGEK

With `FC(F)(F)c1cccnc1-c1ccc(-c2nc3ccc(N4CCOCC4)cc3[nH]2)nc1` [Compound 169, 6′-(6-morpholin-4-yl-1H-benzoimidazo-2-yl)-3-trifluoromethyl-[2,3′]bipyridine], the inhibition in vivo at 20 mg/kg in experiment [1] was 57%. On to `FC(F)(F)c1cccnc1-c1ccc(-c2nc3ccc(Br)cc3[nH]2)nc1` [Compound 165, 6-bromo-2-(5-(3-(trifluoromethyl)pyridin-2-yl)pyridin-2-yl)-1H-benzoimidazole], for which the IC50 – broadly, the concentration needed to halve the response being measured – at human vanilloid-1 (hVR1) amounted to 28 nM. Besides, in experiment [1], the inhibition in vivo at 20 mg/kg is 60%. The matching figures for `FC(F)(F)c1cc(Br)c2nc(-c3ccc(-c4ncccc4C(F)(F)F)cn3)[nH]c2c1` [Compound 164, 4-bromo-6-(trifluoromethyl)-2-(5-(3-(trifluoromethyl)pyridin-2-yl)pyridin-2-yl)-1H-benzoimidazole]: 9 nM and 53%. The matching figures for `FC(F)(F)c1cccnc1-c1ccc(-c2nc3cc(Cl)c(Cl)cc3[nH]2)nc1` [Compound 163, 6′-(5,6-dichloro-1H-benzoimidazole-2-yl)-3-trifluoromethyl-[2,3′]bipyridine]: 15 nM and 41%.

For `CC(C)(C)c1ccc2nc(-c3ccc(-c4ncc(Cl)cc4Cl)cc3)[nH]c2c1` [Compound 25, 6-tert-butyl-2-[4-(3,5-dichloropyridin-2-yl)phenyl]-1H-benzoimidazole], at human vanilloid-1 (hVR1), the IC50 is 100 nM. Further, the inhibition in vivo at 20 mg/kg in experiment [1] came out at 23%. On to `Clc1cc2nc(-c3ccc(-c4ncccc4Cl)cc3)[nH]c2cc1Cl` [Compound 12, 2-[4-(3-chloropyridin-2-yl)phenyl]-5,6-dichloro-1H-benzoimidazole], for which the IC50 on human vanilloid-1 (hVR1) was 70 nM. Further, the inhibition in vivo at 20 mg/kg in experiment [1] amounted to 35%. Regarding `FC(F)(F)c1cc(Br)c2nc(-c3ccc(-c4ncccc4C(F)(F)F)cc3)[nH]c2c1` [Compound 36, 4-bromo-6-(trifluoromethyl)-2-(4-(3-(trifluoromethyl)pyridin-2-yl)phenyl)-1H-benzoimidazole], on human vanilloid-1 (hVR1), the IC50 worked out at 94 nM. Also, in experiment [1], the inhibition in vivo at 20 mg/kg was 70%.

In the case of `FC(F)(F)c1cccnc1-c1ccc(-c2nc3ccc(Br)cc3[nH]2)cc1` [Compound 37, 6-bromo-2-(4-(3-(trifluoromethyl)pyridin-2-yl)phenyl)-1H-benzoimidazole], the IC50 on human vanilloid-1 (hVR1) was 75 nM. The inhibition in vivo at 20 mg/kg in experiment [1] amounted to 50%. As for `FC(F)(F)c1cccnc1-c1ccc(-c2nc3ncc(Br)cc3[nH]2)nc1` [Compound 167, 6′-(6-bromo-1H-imidazo[4,5-b]pyridine-2-yl)-3-trifluoromethyl[2,3′]bipyridine], the inhibition in vivo at 20 mg/kg in experiment [1] turned out to be 55%.
